Data on 1 compound can be found in ChEMBL document CHEMBL4627332, “Interruption of Vif/Elongin C interaction: In silico and experimental elucidation of the underlying molecular mechanism of benzimidazole-based APOBEC3G stabilizers” (Bioorg Med Chem, 2020).

Calls of active or inactive are those of the source. The calls are words filed in the database; no cut-off is given here.

This assay can be described thus: Inhibition of HIV1 Vif interaction with ElonginC (unknown origin) co-transfected in 293 T cells assessed as decrease in ElonginC precipitation at 20 uM measured after 1 hr in presence of ant-FLAG antibody by immunoblot analysis. It counts as cell-based.

In the case of `Cc1noc(C)c1CSc1nc2ccccc2n1-c1ccccc1`, the inhibition result is “Active”.
